Test results published in article PMC3514216, “SRC Homology 2 Domain Binding Sites in Insulin, IGF-1 and FGF receptor mediated signaling networks reveal an extensive potential interactome” (Cell Communication and Signaling : CCS, 2012).

Tested on: panel of 50 SH2 domains
Assay: SPOT peptide array probed with each of 50 GST-SH2 domains
Type: binding
Conditions: SPOT192 peptide array; for SH2 Domains >3X: list of GST-SH2 domains with spot intensity >3X array mean (array-positive); for 2X < SH2 Domains < 3X: list of GST-SH2 domains with spot intensity between 2X and 3X array mean (indeterminate range)
From the text: The use of addressable peptide arrays is a reproducible and semi-quantitative approach that has been extensively validated for studying protein interactions with peptide ligands. To investigate connections between SH2 domain proteins and their putative phosphorylated docking sites on cell surface receptors, we developed addressable arrays consisting of 192 phosphotyrosine peptides. This peptide set was assembled using 71 phosphotyrosine peptide motifs corresponding to all of the cytoplasmic tyrosine residues within the FGF receptors (FGFR1-4), insulin receptor (InsR) and IGF-1 receptor (IGF-1R) (Figure 1A). Activation of these receptors results in the phosphorylation of associated scaffold proteins, and so 75 phosphotyrosine peptides corresponding to a comprehensive list of tyrosine residues within insulin receptor substrates (IRS-1 and IRS-2) and fibroblast receptor substrates (FRS-2 and FRS-3) were included. In addition, 33 phosphotyrosine peptides were incorporated from the downstream signaling proteins PLC-γ1, p130Cas (BCAR1) and p62DOK1. […] These control peptides provide a reference and establish the empirical cut-off for designated binding interactions (Table 1). No discrimination was made against peptides on the basis of reported phosphorylation state in order to examine a diverse and unbiased set of motifs. The resulting set of 192 phosphotyrosine peptides and their corresponding position in the proteins of origin is noted in Additional file 1: Table S1. Addressable arrays were synthesized as membrane-bound 11-mer peptides using the SPOT synthesis technique. While the majority of SH2 domains recognize residues C-terminal to the phosphotyrosine in their cognate peptide ligands, additional contacts between SH2 domains and residues N-terminal to the phosphotyrosine are observed for the SH2 domain of Sh2d1a (SAP) and cannot be ruled out in other cases. Peptides were synthesized with six flanking residues C-terminal to the phosphotyrosine and four residues N-terminal to the phosphotyrosine.
To assess the potential network of SH2 domain interactions we selected 50 SH2 domains representing 28 of the 38 families of SH2 domains (Figure 1B) all of which we have previously shown can be expressed and purified. These include a number of extensively studied SH2 domains (Src, Grb2, PLCγ), as well as a number of less studied SH2 domains from proteins such as Shd, She, Shf, Slnk (Sh2d6), Sh2d1a (SAP), Sh2d1b (Eat-2), and Brdg1. To address potential variability in specificity within families we employed all members from the SHB, CRK, GRB2, SRC and ABL families (families are indicated with complete Capitalized lettering).
SH2 domains were arrayed as GST fusion proteins and detected using anti-GST primary antibodies and near-infrared labeled secondary antibodies. In an effort to present a dataset with minimal false positives, we chose an empirical cutoff based on the array average across all peptide spots to classify interactions (Figure 1A). In cases where the intensity of the signal for an individual SH2-domain binding event exceeded the mean intensity of all the peptides on the membrane by three-fold were scored as “array positives” [22]. Non-binding was judged in cases where the intensity of a spot was less than the mean intensity of all spots on the membrane and these were scored as “array negatives”. Peptides with signal intensities between 1X and 3X mean were scored as “indeterminate” and ascribed as neither array positive binding interactions nor array-negative non-binders. […] This signature may be indicative of promiscuity differences between phosphopeptides or there may be a subset of peptides which interact in a nonspecific fashion with either the GST fusion tag or one of the antibodies used for detection, resulting in false positives. […]

Substance	SH2 Domains >3X	2X < SH2 Domains < 3X
PKCTpYENVTGG [G13]	GADS, GRB2, GRB7, SH3BP2	GRAP, MIST
LVALpYTRDEHF [B21]	–	SH2D2A
DNLPpYVQILKT [E03]	BRDG1, MIST, PI3K1_N, PTPN11_C, Sh2b, TENC1	BCAR3, FER, GRAP, MATK, PI3K1_C, PTPN11_N, RIN1, SHD
TRDIpYETDpYpYR [A13]	ABL2, BCAR3, CRK, CRKL, DAPP1, GRB7, PI3K1_C, PLCG2_C	FGR, HCK, RASA1_N, SH2D1B, SRC, FGR, GRB7, LCK, LYN, MIST, RIN1
MCKVpYSDPQPH [E02]	CRKL	–
ELSNpYICMGGK [C01]	PI3K1_C	–
AYHPpYPEDYGD [D16]	BMX	MATK, SLNK
PVAPpYWTSPEK [E01]	–	ABL1
LIALpYTKDEYF [D03]	SH2D2A	ABL1, PLCG2_C
DDPSpYVNVQNL [A06]	GADS, GRAP, GRB2, SH2D1B	–
KKPLpYWDLYEH [H17]	ABL1, BCAR3, BMX, CRKL, DAPP1, GRB7, ITK, MATK, PLCG2_N, PLCG2_C, RASA1_N, RASA1_C, SH2D2A, SH3BP2, TENC1	PI3K1_C, Sh2b
NSALpYSQVQKS [H24]	BCAR3, BRDG1, CRK, CRKL, PTPN11_C, SH2D1B, SHC1, SHIP1	ABL2, BMX, FER, PTPN11_N, RIN1
AEPQpYEEIPIY [A10]	BLK, BRK, FER, FGR, HCK, LYN, NCK1, PLCG2_C, SHC1, SRC, YES	ABL1, BMX, DAPP1, FYN, LCK, RIN1, SH2D1B, SRC
QEGWpYRALTDL [D05]	CRK	ABL1, ABL2, TENC1
VSFYpYSEENKP [B16]	ABL1, BCAR3	ABL2, MATK
MCWQpYNPKMRP [B14]	BCAR3, BMX, BRDG1, FER, MIST, TENC1	ITK, MATK, PLCG2_N, PLCG2_C, PTPN11_C, SHB, SHF, SHD, SYK_C
SDAYpYGPEDPH [C11]	–	BLK, BMX, DAPP1, FYN, GRB7, LCK, LYN, PLCG2_C, RASA1_C, SH2D1B, SHC1
NPGFpYVEANPM [H03]	ZAP70_N	PI3K1_C
QDSLpYSDPLDS [H16]	ABL1, FYN, HCK, LCK, LYN, NCK1, RASA1_C, SRC, ZAP70_N	BLK, FGR, SHIP1
HHIDpYYKKTTN [E13]	BCAR3, BMX, BRDG1, FER, MIST, PLCG2_N, PTPN11_C, SHB, SHF, TENC1	DAPP1, ITK, MATK, PI3K1_N, PTPN11_N, RIN1, SH3BP2, SHD, SHE, SHIP1, SYK_C
GLDEpYDEVPMP [A05]	NCK1	BRK, FER
EFYGpYMTMDRP [D11]	PI3K1_C	–
PFEQpYSPGGQD [F12]	–	ZAP70_N
AACDpYESCATA [A01]	PI3K1_C	CRKL, HCK
HHIDpYYKKTSN [F16]	BCAR3, BMX, BRDG1, FER, PLCG2_N, PTPN11_C, SHF, TENC1	DAPP1, ITK, MATK, MIST, PI3K1_N, PLCG2_C, PTPN11_N, RIN1, SH3BP2, SHB, SHD, SHIP1

Substance	SH2 Domains >3X	2X < SH2 Domains < 3X
DPMPpYEPALPQ [F05]	FYN, LYN, SHIP1, YES	FGR, LCK, SH2D1B, SHC1
PMHNpYVNTENV [G07]	GADS, GRAP, GRB2, SH3BP2	PI3K1_C, VAV1
TDDGpYMPMSPG [C06]	HCK, PI3K1_C, SRC	FYN
LEYCpYNPSHNP [E10]	GRB7	–
QVHTpYVNTTGV [G02]	GADS, GRAP, GRB2, GRB7, PI3K1_N, PI3K1_C	ABL1, ZAP70_N
PGLDpYSFDTCK [F09]	ABL1, CRK, CRKL, HCK, GRB7, SHIP1, SRC, ZAP70_N	FGR, SHC1
VKWHpYLALRRY [F21]	BCAR3, BMX, BRDG1, BRK, DAPP1, FER, GRB2, MATK, MIST, PI3K1_N, PI3K1_C, PLCG2_N, PLCG2_C, PTPN11_N, PTPN11_C, RIN1, Sh2b, SH3BP2, SHB, SHF, SHD, TENC1	FGR, ITK, RASA1_C, SH2D2A, SHE, SYK_C
VNPEpYFSAADV [B12]	–	Sh2b
EQDEpYDIPRHL [H10]	BRK, CRK, CRKL, FGR, FYN, LCK, LYN, RIN1, SHC1, YES	ABL1, BLK, HCK, PI3K1_N, SH2D1B, SHIP1, SRC
SQVNpYRVPNMR [G16]	BCAR3, BRDG1, MIST, PLCG2_N, SHF, TENC1	BMX, CRKL, PLCG2_C
RQLNpYIQVELK [G14]	BCAR3, MIST, PTPN11_N, SHE	BRDG1, SHD, TENC1
NKLVpYENINGL [G04]	GADS, GRAP, GRB2, GRB7, SH2D2A, SH3BP2	ABL1
PNGHpYILSRGG [C02]	BRDG1, CRK, DAPP1, MIST, PTPN11_C, RASA1_C, SHB, SHF, SHD, SYK_C, TENC1	BCAR3, BMX, FER, PLCG2_N, Sh2b, SHE
WYPHpYFVLTSS [G24]	ABL2, CRK, CRKL, ITK, MATK, MIST, PI3K1_C, PTPN11_C, SH2D1B, SHD, SHIP1, ZAP70_N	BCAR3, GRB7, SHC1
EDSGpYMRMWAG [D20]	FYN, PI3K1_C	LCK
PRLEpYYESEKK [C24]	–	ZAP70_N
AEDVpYDVPPPA [A04]	CRK, CRKL, HCK, NCK1, SRC	FYN, LYN, YES
VIMLpYVFHRKR [B11]	BCAR3, BMX, BRDG1, BRK, DAPP1, FER, MATK, MIST, PI3K1_N, PLCG2_N, PTPN11_N, PTPN11_C, RASA1_C, RIN1, SHB, SHF, SHD, SHE, TENC1	GRB2, PI3K1_C, PLCG2_C, SH3BP2, SYK_C
ENSLpYSPTWEG [H14]	ABL2, FYN, LYN, NCK1, SHC1, VAV1	ABL1, BLK, LCK, SH2D1B, SHIP1
TNEEpYLDLSQP [F02]	–	BLK, FYN, SH2D1B, SRC, ZAP70_N
GGPLpYVLVEYA [F07]	MIST, RASA1_N, SHE, SYK_C, ZAP70_N	ITK, SHD
DGPLpYVIVEYA [E06]	ITK, MIST, RASA1_N, SHB, SHF, SHE, SYK_C	SHD, TENC1
HKIEpYSRRRDA [G08]	BRDG1, BRK, PLCG2_N, SHF, TENC1	BCAR3, BMX, ITK, MIST, PLCG2_C, SHB, SYK_C
EDPIpYDEPEGL [H19]	ABL1, BLK, HCK, NCK1, SHC1, SLNK, SRC	BMX, LCK, LYN, YES
PQDIpYDVPPVR [H11]	CRK, CRKL, NCK1, SHIP1, ZAP70_N	FGR, FYN, LCK, LYN
